≈ marks a conversion by molar mass, not a printed value. Where two headings read alike, the source gives them in different places.
Legend:
Streptococcus pneumoniae = assay: Susceptibility testing in liquid media (MIC), S. pneumoniae; format: cell-based; conditions: 35° C. overnight, read-out: S. pneumoniae MIC range
Procedure: (§1) Compounds of this invention were also tested for antimicrobial activity by susceptibility testing in liquid media. Such assays were performed within the guidelines of the latest NCCLS document governing such practices: “M7-A5 Methods for dilution Antimicrobial Susceptibility Tests for Bacteria that Grow Aerobically; Approved Standard—Fifth Edition (2000)”. Other publications such as “Antibiotics in Laboratory Medicine” (Edited by V. Lorian, Publishers Williams and Wilkins, 1996) provide essential practical techniques in laboratory antibiotic testing. Essentially, several discrete bacterial colonies of Staphylococcus aureus, Streptococcus pneumoniae, Haemophilus influenzae, or Enterococcus faecalis (3 to 7) from a freshly streaked plate were transferred to an appropriate rich broth medium such as MHB, and supplemented where appropriate for the more fastidious organisms. This was grown overnight to high density followed by a 1 or 2-thousand-fold dilution to give an inoculation density of between 5×10^5 and 5×10^6 CFU per mL. Alternatively, the freshly picked colonies can be incubated at 37° C. for about 4 to 8 hours until the culture equals or exceeds a turbidity of a 0.5 McFarland standard (approximately 1.5×10^8 cells per mL) and diluted to give the same CFU per mL as above. In a more convenient method, the inoculum was prepared using a commercially available mechanical device (the BBL PROMPT System) that involves touching five colonies directly with a wand, containing crosshatch grooves at its bottom, followed by suspension of the bacteria in an appropriate volume of saline. Dilution to the appropriate inoculum cell density was made from this cell suspension. The broth used for testing consists of MHB supplemented with 50 mg per L of Ca^2+ and 25 mg per L of Mg^2+. Standard dilution panels of control antibiotics were made and stored as in the NCCLS standard M7-A5, the dilution range typically being in the 128 μg per mL to […] (by 2-fold serial dilution). The test compounds were dissolved and diluted fresh for experimentation on the same day; the same or similar ranges of concentration as above being used. The test compounds and controls were dispensed into a multiwell plate and test bacteria added such that the final inoculation was approximately 5×10^4 CFU per well and the final volume was 100 μL. The plates were incubated at 35° C. overnight (16 to 20 hours) and checked by eye for turbidity or quantitated with a multiwell plate reader. […] Such determinations were also compared to the appropriate tables contained in the above two publications to ensure that the range of antibacterial activity is within the acceptable range for this standardized assay.
(§2) The compound numbers correspond to the compound numbers in Table 2.

Staphylococcus aureus = assay: Susceptibility testing in liquid media (MIC), S. aureus; format: cell-based; conditions: 35° C. overnight, read-out: S. aureus MIC range
Procedure: as §1, §2

E. coli Gyrase = E. coli Gyrase (Escherichia coli, UniProt P0AES6); assay: DNA Gyrase ATPase assay (E. coli Gyrase Ki); format: biochemical
Procedure: The ATP hydrolysis activity of DNA gyrase was measured by coupling the production of ADP through pyruvate kinase/lactate dehydrogenase to the oxidation of NADH. This method has been described previously (Tamura and Gellert, 1990, J. Biol. Chem., 265, 21342).
ATPase assays were carried out at 30° C. in buffered solutions containing 100 mM TRIS pH 7.6, 1.5 mM MgCl2, 150 mM KCl. The coupling system contains (final concentrations) 2.5 mM phosphoenol pyruvate, 200 μM nicotinamide adenine dinucleotide (NADH), 1 mM DTT, 30 ug/ml pyruvate kinase, and 10 ug/ml lactate dehydrogenase. 40 nanomolar enzyme and a DMSO solution of the inhibitor to a final concentration of 4% was added and the reaction mixture was allowed to incubate for 10 minutes at 30° C. The reaction was then started by the addition of ATP to a final concentration of 0.9 mM and the rate of NADH disappearance at 340 nanometers was measured over the course of 10 minutes. The Ki values were determined from rate versus concentration profiles.
The compound numbers correspond to the compound numbers in Table 2. Compounds having an activity designated as “A” provided a Ki inhibition value equal to or above 0.100 micromolar. Compounds having an activity designated as “B” provided a Ki inhibition value between 0.050 micromolar and 0.100 micromolar. […] The term “ND” means no data.

S. aureus TopoIV = S. aureus TopoIV (Staphylococcus aureus, UniProt P0C1S7); assay: DNA Topo IV ATPase assay (S. aureus TopoIV Ki); format: biochemical; conditions: 30° C., read-out: S. aureus Topo IV Ki Inhibition Ranges (Activity)
Sequence of S. aureus TopoIV (P0C1S7 whole entry): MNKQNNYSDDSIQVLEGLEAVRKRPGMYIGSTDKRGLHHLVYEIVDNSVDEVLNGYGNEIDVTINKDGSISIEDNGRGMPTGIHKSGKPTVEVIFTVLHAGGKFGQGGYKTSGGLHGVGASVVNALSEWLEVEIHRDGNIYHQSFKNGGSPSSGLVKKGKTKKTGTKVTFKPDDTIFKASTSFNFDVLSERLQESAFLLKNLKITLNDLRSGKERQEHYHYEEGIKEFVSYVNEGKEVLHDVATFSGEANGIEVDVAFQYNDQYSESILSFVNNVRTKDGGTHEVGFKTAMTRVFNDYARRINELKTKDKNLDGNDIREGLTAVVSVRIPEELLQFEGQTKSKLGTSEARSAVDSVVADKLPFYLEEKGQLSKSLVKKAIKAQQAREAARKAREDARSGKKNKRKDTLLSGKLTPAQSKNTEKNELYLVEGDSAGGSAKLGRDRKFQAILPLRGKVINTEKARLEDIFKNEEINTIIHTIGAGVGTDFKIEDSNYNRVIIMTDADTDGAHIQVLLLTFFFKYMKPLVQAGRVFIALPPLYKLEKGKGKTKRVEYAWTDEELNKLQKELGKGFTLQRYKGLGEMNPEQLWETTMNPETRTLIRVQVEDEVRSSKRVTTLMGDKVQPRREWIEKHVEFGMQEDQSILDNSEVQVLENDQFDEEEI
Sequence of S. aureus TopoIV (P0C1U9 whole entry partner): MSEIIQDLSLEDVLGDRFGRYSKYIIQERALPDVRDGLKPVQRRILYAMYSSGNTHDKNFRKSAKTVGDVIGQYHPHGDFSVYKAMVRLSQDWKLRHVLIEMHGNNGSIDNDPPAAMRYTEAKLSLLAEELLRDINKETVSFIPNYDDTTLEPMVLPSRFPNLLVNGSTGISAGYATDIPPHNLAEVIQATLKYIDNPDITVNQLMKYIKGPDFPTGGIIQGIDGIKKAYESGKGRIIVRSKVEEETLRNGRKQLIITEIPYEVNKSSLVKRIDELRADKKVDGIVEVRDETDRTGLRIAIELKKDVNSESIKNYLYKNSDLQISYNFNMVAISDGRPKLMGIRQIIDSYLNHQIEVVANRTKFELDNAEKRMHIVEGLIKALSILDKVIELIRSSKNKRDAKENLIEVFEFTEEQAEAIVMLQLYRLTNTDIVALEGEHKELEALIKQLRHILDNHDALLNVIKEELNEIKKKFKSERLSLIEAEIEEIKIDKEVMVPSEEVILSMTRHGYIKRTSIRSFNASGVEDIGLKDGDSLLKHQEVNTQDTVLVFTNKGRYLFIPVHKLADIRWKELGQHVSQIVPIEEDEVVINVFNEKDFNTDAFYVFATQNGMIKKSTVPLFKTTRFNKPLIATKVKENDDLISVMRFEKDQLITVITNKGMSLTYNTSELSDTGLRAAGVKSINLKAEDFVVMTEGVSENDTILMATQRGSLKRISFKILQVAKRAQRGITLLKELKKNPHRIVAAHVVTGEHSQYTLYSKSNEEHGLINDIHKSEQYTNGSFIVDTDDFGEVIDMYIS
Procedure: DNA Topo IV ATPase Assay:
The conversion of ATP to ADP by TopoIV enzyme was coupled to the conversion of NADH to NAD+ and measured by the change in absorbance at 340 nm. Topo4 was incubated with inhibitor (4% DMSO final) in buffer for 10 minutes at 30° C. Reaction was initiated with ATP and rates were monitored continuously for 20 minutes at 30° C. on a Molecular Devices SpectraMAX plate reader. The inhibition constant, Ki, was determined from plots of rate vs. [Inhibitor] fit to the Morrison Equation for tight binding inhibitors.
S. aureus TopoIV Buffer: 100 mM Tris 7.5, 2 mM MgCl2, 200 mM K●Glutamate, 2.5 mM phosphoenol pyruvate, 0.2 mM NADH, 1 mM DTT, 4.25 μg/mL linearized DNA, 50 μg/mL BSA, 30 μg/mL pyruvate kinase, and 10 μg/mL lactate dehyrodgenase (LDH).
The compound numbers correspond to the compound numbers in Table 2. Compounds having an activity designated as “A” provided a Ki inhibition value equal to or above 0.500 micromolar. […] The term “ND” means no data.

Haemophilus influenzae = assay: Susceptibility testing in liquid media (MIC), H. influenzae; format: cell-based; conditions: 35° C. overnight, read-out: H. influenzae MIC range
Procedure: as §1, §2

Enterococcus faecalis = assay: Susceptibility testing in liquid media (MIC), E. faecalis; format: cell-based; conditions: 35° C. overnight, read-out: E. faecalis MIC range
Procedure: as §1, §2

[1] = ATPase assay, 30° C., 0.9 mM ATP, read-out: E. coli Gyrase Ki Inhibition Ranges (Activity)

Row | SMILES | MIC (Streptococcus pneumoniae) [µg/mL] | MIC (Staphylococcus aureus) [µg/mL] | Ki (E. coli Gyrase) [nM] | Ki (S. aureus TopoIV) [nM] | MIC (Haemophilus influenzae) [µg/mL] | MIC (Enterococcus faecalis) [µg/mL] | Ki (E. coli Gyrase; [1]) [nM]
1 | CCNC(=O)Nc1nc2cc(C(C)CC(=O)N(C)C)cc(-c3ncccc3F)c2[nH]1 (centres unmarked) [Compound I-19] | 1 to 7 (≈ 2.42 to 17 µM) | > 7 | > 100 | ≥ 500 | > 7 | 1 to 7 (≈ 2.42 to 17 µM) | –
2 | CCNC(=O)Nc1nc2cc(C(C)CC(=O)NC)cc(-c3ncccc3F)c2[nH]1 (centres unmarked) [Compound I-9] | 1 to 7 (≈ 2.51 to 17.6 µM) | > 7 | > 100 | ≥ 500 | > 7 | > 7 | –
3 | CCNC(=O)Nc1nc2cc(N3CCN(C(C)=O)CC3)cc(-c3ncccn3)c2[nH]1 [Compound I-5] | < 1 | > 7 | – | – | > 7 | 1 to 7 (≈ 2.45 to 17.1 µM) | < 50
4 | CCNC(=O)Nc1nc2cc(C(=O)NC)cc(-c3ncccc3F)c2[nH]1 [Compound I-3] | < 1 | > 7 | – | – | > 7 | < 1 | < 50
5 | CCNC(=O)Nc1nc2cc(C3=CC(=O)N(Cc4ccccc4)CC3)cc(-n3cccn3)c2[nH]1 [Compound I-18] | < 1 | < 1 | < 50 | ≤ 250 | > 7 | < 1 | –
6 | CCNC(=O)Nc1nc2cc(C(=O)O)cc(-c3ncccc3F)c2[nH]1 [Compound I-2] | > 7 | > 7 | – | – | > 7 | > 7 | > 100
7 | CCNC(=O)Nc1nc2cc(NCc3ccccn3)cc(-c3ncccn3)c2[nH]1 [Compound I-14] | < 1 | > 7 | 50 to 100 | ≥ 500 | > 7 | 1 to 7 (≈ 2.57 to 18 µM) | –
8 | CCNC(=O)Nc1nc2cc(/C(C)=C/C(=O)NC)cc(-c3ncccc3F)c2[nH]1 [Compound I-10] | < 1 | > 7 | < 50 | ≤ 250 | > 7 | < 1 | –
9 | CCNC(=O)Nc1nc2cc(OC)cc(-n3cccn3)c2[nH]1 [Compound I-1] | 1 to 7 (≈ 3.33 to 23.3 µM) | > 7 | – | – | > 7 | > 7 | 50 to 100
10 | CCNC(=O)Nc1nc2cc(C3CCN(C)C(=O)C3)cc(-c3ncccc3F)c2[nH]1 (centres unmarked) [Compound I-13] | < 1 | 1 to 7 (≈ 2.44 to 17.1 µM) | < 50 | ≤ 250 | > 7 | < 1 | –
11 | CCNC(=O)Nc1nc2cc(N3CCCC3=O)cc(-c3ncccn3)c2[nH]1 [Compound I-6] | < 1 | > 7 | – | – | > 7 | 1 to 7 (≈ 2.74 to 19.2 µM) | < 50
12 | CCNC(=O)Nc1nc2cc(C#N)cc(-c3ncccc3F)c2[nH]1 [Compound I-4] | < 1 | > 7 | – | – | > 7 | 1 to 7 (≈ 3.08 to 21.6 µM) | 50 to 100
13 | CCNC(=O)Nc1nc2cc(/C(C)=C/C(=O)N(C)C)cc(-c3ncccc3F)c2[nH]1 [Compound I-8] | < 1 | > 7 | 50 to 100 | ≤ 250 | > 7 | 1 to 7 (≈ 2.44 to 17.1 µM) | –
14 | CCNC(=O)Nc1nc2cc(C#N)c(F)c(-n3cccn3)c2[nH]1 [Compound I-16] | 1 to 7 (≈ 3.19 to 22.3 µM) | > 7 | < 50 | ≥ 500 | > 7 | > 7 | –
15 | CCNC(=O)Nc1nc2cc(C(=O)OC)cc(-c3ncccc3F)c2[nH]1 [Compound I-7] | 1 to 7 (≈ 2.8 to 19.6 µM) | > 7 | – | – | > 7 | 1 to 7 (≈ 2.8 to 19.6 µM) | < 50
16 | CCNC(=O)Nc1nc2cc(F)cc(-c3ncccn3)c2[nH]1 [Compound I-15] | 1 to 7 (≈ 3.33 to 23.3 µM) | > 7 | < 50 | ≥ 500 | > 7 | 1 to 7 (≈ 3.33 to 23.3 µM) | –
17 | CCNC(=O)Nc1nc2cc(C3CCN(Cc4ccccc4)C(=O)C3)cc(-n3cccn3)c2[nH]1 (centres unmarked) [Compound I-17] | < 1 | 1 to 7 (≈ 2.19 to 15.3 µM) | > 100 | ≤ 250 | > 7 | 1 to 7 (≈ 2.19 to 15.3 µM) | –

Source: patent US8394803B2, “Gyrase inhibitors and uses thereof” (Vertex Pharmaceuticals Incorporated, priority 2005, dated 2013)
